Experimental findings from US20230391748A1, “BICYCLIC INHIBITORS OF IRAK” (priority 2022, published 2023) are described below.

The IC50 is the concentration that inhibits the measured activity by half.

Like-named read-outs stand apart in the source and are kept apart here.

One assay deals with TNF-α in human PBMCs. The assay can be described thus: R848-induced TNF-α in human PBMCs Assay. Conditions: Homo sapiens, PBMC, 4 h, read-out: TNFα (PBMC, R848) (IC50, μM). The class given is cell-based. On the procedure:
R848-induced TNF-α in human PBMCs Assay
100 μL/well PBMCs (200K/well) were seeded in 96-well flat-bottom tissue culture plates. […] 100 μL/well 2× compound was added to the PBMC in the tissue culture plates. […] The cells were stimulated with R848 for an additional 4 hours at 37° C., 5% CO2. The supernatant (100 μl/well) was harvested to measure TNF-α by ELISA. […] The chemiluminescence values were entered into Athena (Rigel) for curve fitting, EC50 calculation, and database storage.
(§1) TNF-α ELISA was performed according to the vendor protocol, using 96 Well Flat-Bottom, MaxiSorp Black Immuno plates and 100 μL/well of supernatant. The plates were developed using 100 μL/well of Super Signal ELISA Pico Chemiluminescent Substrate. The plates were read with a luminometer, and the chemiluminescence values were entered into Athena (Rigel) for curve fitting, EC50 calculation, and database storage.

For another assay, the system named is IL23p19 in THP-1 Cells. The assay can be described thus: LPS Induced IL23p19 in THP-1 Cells (with IFNγ Primed) Assay. The class given is cell-based. Conditions: Homo sapiens, THP-1, 18 h, read-out: IL23 (THP, LPS) (IC50, μM). Here is the method:
LPS Induced IL23p19 in THP-1 Cells (with IFNγ Primed) Assay
On day 1, 50K/well THP-1 cells were seeded and primed with IFNγ (50 ng/mL) in 384-well plates for about 18 hours in RPMI media with 10% FBS. […] 50 μL/well 2× compound was added to 50 μL/well THP-1 cells (with IFNγ primed) in duplicate in 384 well tissue culture plates. […] Day 3, after stimulation for 18 hours at 37° C., 5% CO2, the assay plate was centrifuged and 70 μL/well supernatant was harvested. IL-23p19 protein in 70 µL/well of supernatant was measured by sandwich ELISA, and 25 μl/well Cell Titer Glo reagent was added to the remaining cells to measure compound toxicity.
Maxisorp immuno ELISA plates were pre-coated with 25 μL/well of anti-IL-23p19 capture antibody (2.5 ug/mL) in PBS overnight at room temperature. […] 25 μL/well of biotin labeled anti-IL-12(p40/p70) detection antibody (100 ng/mL) in PBS with 1% BSA was added and the plates were incubated at room temperature for 2 hours with shaking. […] The plates were read with a luminometer, and the chemiluminescence values were entered into Athena (Rigel) for curve fitting, EC50 calculation, and database storage.

A further assay deals with IRAK4 (Homo sapiens (Human), UniProt Q9NWZ3). The assay can be described thus: IRAK4 ADP-Glo Assay. The assay is classed as biochemical. The following applies: MBP substrate. On the procedure: The ADP-Glo™ reagents were thawed at ambient temperature. The Kinase Detection Reagent was prepared by mixing kinase detection buffer with the lyophilized kinase detection substrate, and set aside.
Chain of IRAK4 (Q9NWZ3 whole entry): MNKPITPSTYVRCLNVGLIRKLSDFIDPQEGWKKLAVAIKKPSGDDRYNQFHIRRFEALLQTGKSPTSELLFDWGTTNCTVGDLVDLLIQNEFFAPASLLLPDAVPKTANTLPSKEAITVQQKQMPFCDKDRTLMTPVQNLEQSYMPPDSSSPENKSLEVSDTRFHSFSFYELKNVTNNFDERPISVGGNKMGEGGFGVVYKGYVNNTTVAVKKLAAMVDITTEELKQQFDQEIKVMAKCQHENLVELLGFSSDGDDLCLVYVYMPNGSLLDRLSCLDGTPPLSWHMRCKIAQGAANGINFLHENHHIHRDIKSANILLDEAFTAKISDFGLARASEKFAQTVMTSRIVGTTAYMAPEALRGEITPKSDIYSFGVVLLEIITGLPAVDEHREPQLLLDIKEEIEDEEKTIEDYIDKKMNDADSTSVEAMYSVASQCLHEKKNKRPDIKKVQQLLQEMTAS
A stock volume of 5× Reaction Kinase Buffer was made with a final concentration of 100 mM MgCl2, 200 mM Tris-HCl, and 0.5 mg/ml of BSA, in distilled H2O with a final pH7.4. A 2× working stock volume of Reaction Kinase Buffer was made containing a final concentration of 100 μM DTT.
The components of IRAK4 Enzyme were thawed on ice. Diluted IRAK4 in 1× Kinase Reaction Buffer (diluted from 2× buffer) was prepared at 5.0 ng/μl.
Then diluted 1:5 in 2× Reaction Buffer in a 96 well plate. 1.0 μl was transferred to a 384 well plate in duplicate. […] 1 μl of 1 mg/ml stock solution of MBP substrate was added NOTE: MBP can be combined with ATP mix with equal volume and then added at 2 μl/well. Final reaction volume was 5 μl.
The plate was centrifuged and the reaction mixture was incubated at room temperature for 60 minutes or at 30° C. for 30 minutes.
The reaction was terminated and the remaining ATP was depleted by adding 5 μl of ADP-Glo™ Reagent. The 384-well plate was centrifuged and then the reaction mixture was incubated for another 40 minutes at ambient temperature.
10 μl of the Kinase Detection Reagent was added. The plate was centrifuged and then the reaction mixture was incubated for another 30 minutes at ambient temperature.
The 384-well reaction plate was read using the WALLAC plate reader (Luminescence 0.1s).
On the technique in general: ADP-Glo first removes unused ATP, then detects ADP through luciferase.

Assay [1] concerns TNF-α in Human Primary Monocyte-Derived Dendritic Cells. Description: Gardiquimod-Induced TNF-α in Human Primary Monocyte-Derived Dendritic Cells. Conditions: Dendritic cell. The class given is cell-based. Here is the method: Gardiquimod-Induced TNF-α in Human Primary Monocyte-Derived Dendritic Cells
After 2 hours, the media including floating cells was carefully removed and 12 ml of fresh RPMI media (10% FBS) containing GM-CSF (100 ng/ml) and IL-4 (20 ng/ml) were added to the adherent monocytes. The monocytes were allowed to differentiate for 7 days at 37° C., 5% CO2 for 7 days, supplementing with fresh GM-CSF and IL-4 after 3 days. The differentiated dendritic cells (DC) were harvested by centrifugation (1200 rpm/5 min). The DCs were primed at 37° C., 5% CO2 for 24 hours with 50 ng/ml IFN-γ (1000 U/ml) at 50K/well in 100 μl/well of fresh RPMI media (10% FBS) in a white clear bottom 96 well plate.
The primed DCs were pre-incubated with test compound for 1 hour at 37° C., 5% CO2 by adding 100 μl of RPMI media containing 2× concentrated test compound per well (0.5% final DMSO concentration).
DCs were stimulated with Gardiquimod (10 μl per well of 20× concentrated Gardiquimod solution in RPMI media to give a final concentration of 4 μg/ml) at 37° C., 5% CO2 for an additional 6 hours. The supernatant (100 μl/well) was harvested to measure TNF-α by ELISA. […] The chemiluminescence values were entered into Athena (Rigel) for curve fitting, EC50 calculation, and database storage.
as §1

The mark [2] stands for this setting: IFNγ-primed monocyte-derived dendritic cells, 4 μg/ml Gardiquimod, 6 hours, TNF-α ELISA, read-out: TNFα (DC, GARD) (IC50).

Take `CC(C)Oc1cc2c(OC[C@@H]3CCC(=O)N3)ncc(Br)c2cc1C(N)=O` [Compound I-1, (S)-4-bromo-7-isopropoxy-1-((5-oxopyrrolidin-2-yl)methoxy)isoquinoline-6-carboxamide]: the IC50 in the assay on TNF-α in human PBMCs is 2.61 µM; in the assay with IL23p19 in THP-1 Cells, 9.48 µM; against IRAK4 it was 34 nM; in assay [1] (6 h, read-out: TNFα (DC, GARD) (IC50, μM)), 2.64 µM.
On to `CC(C)Oc1cc2c(OC[C@@H]3CC(F)(F)C(=O)N3)ncc(Br)c2cc1C(N)=O` [Compound I-2, (S)-4-bromo-1-((4,4-difluoro-5-oxopyrrolidin-2-yl)methoxy)-7-isopropoxyisoquinoline-6-carboxamide], for which the IC50 is 1.15 µM in the assay on TNF-α in human PBMCs, 5.53 µM with IL23p19 in THP-1 Cells, 4.4 nM against IRAK4 and 5.34 µM in assay [1] (setting [2]).
For the molecule `CC(C)Oc1cc2c(OC[C@@H]3CCC(=O)N3)ncc(C#CC(C)(C)O)c2cc1C(N)=O` [Compound I-3, (S)-4-(3-hydroxy-3-methylbut-1-yn-1-yl)-7-isopropoxy-1-((5-oxopyrrolidin-2-yl)methoxy)isoquinoline-6-carboxamide], the IC50 is 0.36 µM with TNF-α in human PBMCs, 0.879 µM in the assay on IL23p19 in THP-1 Cells, 12.5 nM at IRAK4 and 0.411 µM in assay [1] (setting [2]).
The like results for `CC(C)Oc1cc2c(OC[C@@H]3CCC(=O)N3)ncc(C#CC(C)(C)CO)c2cc1C(N)=O` [Compound I-5, (S)-4-(4-hydroxy-3,3-dimethylbut-1-yn-1-yl)-7-isopropoxy-1-((5-oxopyrrolidin-2-yl)methoxy)isoquinoline-6-carboxamide] were, in that order, 0.433 µM, 6.51 µM, 120 nM and 0.488 µM.
The like results for `CC(C)Oc1cc2c(OC[C@@H]3CCC(=O)N3)ncc(C#CC3CCOCC3)c2cc1C(N)=O` [Compound I-6, (S)-7-isopropoxy-1-((5-oxopyrrolidin-2-yl)methoxy)-4-((tetrahydro-2H-pyran-4-yl)ethynyl)isoquinoline-6-carboxamide] were, in that order, 0.199 µM, 0.195 µM, 5.1 nM and 0.334 µM.
With `CC(C)Oc1cc2c(OC[C@@H]3CCC(=O)N3)ncc(C#CCN3CCOCC3)c2cc1C(N)=O` [Compound I-7, (S)-7-isopropoxy-4-(3-morpholinoprop-1-yn-1-yl)-1-((5-oxopyrrolidin-2-yl)methoxy)isoquinoline-6-carboxamide], the IC50 in the assay on TNF-α in human PBMCs worked out at 0.402 µM; with IL23p19 in THP-1 Cells, 0.527 µM; against IRAK4, 8.2 nM; in assay [1] (setting [2]), 0.383 µM.
With `CC(C)Oc1cc2c(OC[C@@H]3CCC(=O)N3)ncc(C#CCCN3CCOCC3)c2cc1C(N)=O` [Compound I-8, (S)-7-isopropoxy-4-(4-morpholinobut-1-yn-1-yl)-1-((5-oxopyrrolidin-2-yl)methoxy)isoquinoline-6-carboxamide], the IC50 in the assay with TNF-α in human PBMCs stood at 0.411 µM; in the assay on IL23p19 in THP-1 Cells, 0.332 µM; against IRAK4, 12.3 nM; in assay [1] (setting [2]) it was 0.313 µM.
In the same order, the values of `CC(C)Oc1cc2c(OC[C@@H]3CCC(=O)N3)ncc(C#CC3(O)CCCC3)c2cc1C(N)=O` [Compound I-9, (S)-4-((1-hydroxycyclopentyl)ethynyl)-7-isopropoxy-1-((5-oxopyrrolidin-2-yl)methoxy)isoquinoline-6-carboxamide] are 0.319 µM, 0.394 µM, 9.9 nM and 0.21 µM.
In the same order, the values of `CC(C)Oc1cc2c(OC[C@@H]3CCC(=O)N3)ncc(C#CC3(O)CCOCC3)c2cc1C(N)=O` [Compound I-10, (S)-4-((4-hydroxytetrahydro-2H-pyran-4-yl)ethynyl)-7-isopropoxy-1-((5-oxopyrrolidin-2-yl)methoxy)isoquinoline-6-carboxamide] are 0.873 µM, 3.28 µM, 11.6 nM and 2.93 µM.
As for `CC(C)Oc1cc2c(OC[C@@H]3CCC(=O)N3)ncc(C#CCC3CCOCC3)c2cc1C(N)=O` [Compound I-11, (S)-7-isopropoxy-1-((5-oxopyrrolidin-2-yl)methoxy)-4-(3-(tetrahydro-2H-pyran-4-yl)prop-1-yn-1-yl)isoquinoline-6-carboxamide], the IC50 with TNF-α in human PBMCs worked out at 0.32 µM; in the assay with IL23p19 in THP-1 Cells, 0.474 µM; against IRAK4 it was 10.5 nM; in assay [1] (setting [2]), 0.199 µM.
For the molecule `CC(C)Oc1cc2c(OC[C@@H]3CCC(=O)N3)ncc(C#CC3(O)CCN(C(=O)OC(C)(C)C)CC3)c2cc1C(N)=O` [Compound I-12, tert-butyl (S)-4-((6-carbamoyl-7-isopropoxy-1-((5-oxopyrrolidin-2-yl)methoxy)isoquinolin-4-yl)ethynyl)-4-hydroxypiperidine-1-carboxylate], the IC50 with TNF-α in human PBMCs worked out at 0.448 µM; in the assay with IL23p19 in THP-1 Cells, 1.25 µM; against IRAK4, 41.2 nM; in assay [1] (setting [2]) it was 6.09 µM.
As for `CC(C)Oc1cc2c(OC[C@@H]3CC(F)(F)C(=O)N3)ncc(C#CC3(O)CCN(C(=O)OC(C)(C)C)CC3)c2cc1C(N)=O` [Compound I-52, tert-butyl (S)-4-((6-carbamoyl-1-((4,4-difluoro-5-oxopyrrolidin-2-yl)methoxy)-7-isopropoxyisoquinolin-4-yl)ethynyl)-4-hydroxypiperidine-1-carboxylate], the IC50 with TNF-α in human PBMCs was 0.338 µM; in the assay on IL23p19 in THP-1 Cells, 4.57 µM; in assay [1] (setting [2]), 0.927 µM.
The like results for `CC(C)Oc1cc2c(O[C@@H]3CCCNC3)ncc(C#CC3(O)CCCC3)c2cc1C(N)=O` [Compound I-85, (R)-4-((1-hydroxycyclopentyl)ethynyl)-7-isopropoxy-1-(piperidin-3-yloxy)isoquinoline-6-carboxamide] were, in that order, 2.08 µM, 1.96 µM and 4.86 µM.
For `CC(C)Oc1cc2c(O[C@@H]3CCCN(C(=O)CC#N)C3)ncc(-c3cnn(C4CCNCC4)c3)c2cc1C(N)=O` [Compound I-122, (R)-1-((1-(2-cyanoacetyl)piperidin-3-yl)oxy)-7-isopropoxy-4-(1-(piperidin-4-yl)-1H-pyrazol-4-yl)isoquinoline-6-carboxamide], the IC50 was 2.16 µM in the assay on TNF-α in human PBMCs, 24 nM against IRAK4 and 1 µM in assay [1] (setting [2]).
